From patent US11208400B2, “Substituted 6-(1H-pyrazol-1-yl)pyrimidin-4-amine derivatives and uses thereof” (Bayer Aktiengesellschaft, priority 2016, dated 2021)

Each compound was assayed against T1, human Npt2a (Homo sapiens, UniProt Q06495) (assay: Npt2a activity cell based assay, membrane potential dye, CHO T-REx hNpt2a cells). Conditions: doxycycline-induced, depolarization by sodium phosphate influx, average or median values if tested more than once.
T1 construct: expressed in transfected cells
T1 sequence (Q06495 1-639): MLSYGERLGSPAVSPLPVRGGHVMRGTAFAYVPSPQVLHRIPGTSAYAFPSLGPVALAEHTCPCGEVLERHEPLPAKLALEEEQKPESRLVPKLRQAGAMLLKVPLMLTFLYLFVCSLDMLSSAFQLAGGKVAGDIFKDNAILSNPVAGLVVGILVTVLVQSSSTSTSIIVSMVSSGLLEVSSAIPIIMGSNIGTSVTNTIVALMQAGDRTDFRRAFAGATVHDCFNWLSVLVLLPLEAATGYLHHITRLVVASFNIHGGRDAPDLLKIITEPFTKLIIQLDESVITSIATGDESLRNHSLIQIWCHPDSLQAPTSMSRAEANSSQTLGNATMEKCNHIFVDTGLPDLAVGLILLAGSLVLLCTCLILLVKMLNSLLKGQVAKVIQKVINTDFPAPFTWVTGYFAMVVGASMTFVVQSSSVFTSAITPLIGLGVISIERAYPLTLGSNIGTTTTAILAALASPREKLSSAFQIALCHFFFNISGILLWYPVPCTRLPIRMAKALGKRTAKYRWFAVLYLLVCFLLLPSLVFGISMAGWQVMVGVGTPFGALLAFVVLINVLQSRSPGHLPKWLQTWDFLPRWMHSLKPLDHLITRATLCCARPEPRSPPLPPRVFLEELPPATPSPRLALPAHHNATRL
In short: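 Cells were doxycycline-induced CHO T-REx hNpt2a, dye-loaded and pretreated 5 min at RT with 1 nM–50 μM compound in Na-free pH 7.4 buffer. IC50 was fit to the post/pre-trigger fluorescence ratio.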
With `CCOC(=O)c1cc(C)n(-c2cc(Nc3nn(C)c(-c4ccc(F)cc4)c3CC)ncn2)n1` [Example 83, ethyl 1-(6-{[4-ethyl-5-(4-fluorophenyl)-1-methyl-1H-pyrazol-3-yl]amino}pyrimidin-4-yl)-5-methyl-1H-pyrazole-3-carboxylate] the IC50 was 1.3 µM. `Cc1cc(C)n(-c2cc(Nc3nn(C)c(-c4ccc(C#N)cc4)c3C)ncn2)n1` [Example 118, 4-(3-{[6-(3,5-dimethyl-1H-pyrazol-1-yl)pyrimidin-4-yl]amino}-1,4-dimethyl-1H-pyrazol-5-yl)benzonitrile] gave an IC50 of 0.007 µM. For `Cc1cc(C(F)F)n(-c2cc(Nc3c(C)c(-c4ccc(C(F)(F)F)nc4)nn3CC3CC3)ncn2)n1` [Example 532, N-{1-(cyclopropylmethyl)-4-methyl-3-[6-(trifluoromethyl)pyridin-3-yl]-1H-pyrazol-5-yl}-6-[5-(difluoromethyl)-3-methyl-1H-pyrazol-1-yl]pyrimidin-4-amine], the IC50 was 2.8 µM. In the case of `CCOC(=O)c1c(C)nn(-c2cc(Nc3c(C)c(-c4ccc(C(F)(F)F)cc4)nn3C)ncn2)c1C` [Example 362, ethyl 1-[6-({1,4-dimethyl-3-[4-(trifluoromethyl)phenyl]-1H-pyrazol-5-yl}amino)pyrimidin-4-yl]-3,5-dimethyl-1H-pyrazole-4-carboxylate], the IC50 is reported as 0.22 µM. For `Cc1nn(-c2cc(Nc3c(C)c(-c4ccc(F)cc4)nn3C)ncn2)c(C)c1Cl` [Example 68, 6-(4-chloro-3,5-dimethyl-1H-pyrazol-1-yl)-N-[3-(4-fluorophenyl)-1,4-dimethyl-1H-pyrazol-5-yl]pyrimidin-4-amine], the IC50 was 0.0315 µM. For `Cc1cc(C(F)F)n(-c2cc(Nc3c(C)c(-c4ccc(C#N)cc4)nn3C)ncn2)n1` [Example 240, 4-[5-({6-[5-(difluoromethyl)-3-methyl-1H-pyrazol-1-yl]pyrimidin-4-yl}amino)-1,4-dimethyl-1H-pyrazol-3-yl]benzonitrile], the IC50 was 0.018 µM. Work on `Cc1cc(C)n(-c2cc(Nc3[nH]nc(-c4ccc(F)cc4)c3CC(F)(F)F)ncn2)n1` [Example 36, 6-(3,5-dimethyl-1H-pyrazol-1-yl)-N-[3-(4-fluorophenyl)-4-(2,2,2-trifluoroethyl)-1H-pyrazol-5-yl]pyrimidin-4-amine] yielded an IC50 of 1.7 µM. For `Cc1cc(C)n(-c2cc(Nc3nn(C)c(-c4ccc(C(F)(F)F)cc4)c3C)ncn2)n1` [Example 101, 6-(3,5-dimethyl-1H-pyrazol-1-yl)-N-{1,4-dimethyl-5-[4-(trifluoromethyl)phenyl]-1H-pyrazol-3-yl}pyrimidin-4-amine], the IC50 was 0.0115 µM. For `Cc1nn(-c2cc(Nc3c(C)c(-c4ccc(C(F)(F)F)cc4)nn3CC3CC3)ncn2)c(C)c1Cl` [Example 311, 6-(4-chloro-3,5-dimethyl-1H-pyrazol-1-yl)-N-{1-(cyclopropylmethyl)-4-methyl-3-[4-(trifluoromethyl)phenyl]-1H-pyrazol-5-yl}pyrimidin-4-amine], the IC50 was 0.34 µM. In the case of `Cc1nn(-c2cc(Nc3n[nH]c(-c4ccccc4)c3C)ncn2)c(C)c1Cl` [Example 11, 6-(4-chloro-3,5-dimethyl-1H-pyrazol-1-yl)-N-(4-methyl-5-phenyl-1H-pyrazol-3-yl)pyrimidin-4-amine], the IC50 is reported as 0.0503 µM. Work on `COc1c(-c2ccc(C#N)cc2)nn(C)c1Nc1cc(-n2nc(C)cc2C)ncn1` [Example 444, 4-(5-{[6-(3,5-dimethyl-1H-pyrazol-1-yl)pyrimidin-4-yl]amino}-4-methoxy-1-methyl-1H-pyrazol-3-yl)benzonitrile] yielded an IC50 of 0.12 µM. In the case of `Cc1nn(-c2cc(Nc3c(C)c(-c4ccc(F)cc4)nn3CC3CC3)ncn2)c(C)c1C(O)C1CC1` (single isomer, unassigned) [Example 420, cyclopropyl[1-(6-{[1-(cyclopropylmethyl)-3-(4-fluorophenyl)-4-methyl-1H-pyrazol-5-yl]amino}pyrimidin-4-yl)-3,5-dimethyl-1H-pyrazol-4-yl]methanol], the IC50 is reported as 0.024 µM. `Cc1cc(C)n(-c2cc(Nc3c(C)c(-c4ccc(C(F)F)cc4)nn3CC3CC3)ncn2)n1` [Example 305, N-{1-(cyclopropylmethyl)-3-[4-(difluoromethyl)phenyl]-4-methyl-1H-pyrazol-5-yl}-6-(3,5-dimethyl-1H-pyrazol-1-yl)pyrimidin-4-amine] was tested, and the IC50 was 0.027 µM. `COCCn1nc(-c2ccc(C(F)F)cc2)c(C)c1Nc1cc(-n2nc(C)cc2C(F)F)ncn1` [Example 538, 6-[5-(difluoromethyl)-3-methyl-1H-pyrazol-1-yl]-N-{3-[4-(difluoromethyl)phenyl]-1-(2-methoxyethyl)-4-methyl-1H-pyrazol-5-yl}pyrimidin-4-amine] was tested, and the IC50 was 0.012 µM. Work on `Cc1cc(C)n(-c2cc(Nc3c(Cl)c(-c4ccc(C#N)cc4)nn3CC3CC3)ncn2)n1` [Example 441, 4-[4-chloro-1-(cyclopropylmethyl)-5-{[6-(3,5-dimethyl-1H-pyrazol-1-yl)pyrimidin-4-yl]amino}-1H-pyrazol-3-yl]benzonitrile] yielded an IC50 of 0.021 µM. For `Cc1c(-c2ccc(F)cc2)nn(CC2CC2)c1Nc1cc(-n2cc(C(F)(F)F)cn2)ncn1` [Example 426, N-[1-(cyclopropylmethyl)-3-(4-fluorophenyl)-4-methyl-1H-pyrazol-5-yl]-6-[4-(trifluoromethyl)-1H-pyrazol-1-yl]pyrimidin-4-amine], the IC50 was 0.059 µM. With `COC(C)c1c(C)nn(-c2cc(Nc3nn(C)c(-c4ccc(F)cc4)c3C)ncn2)c1C` (racemic) [Example 343, (±)-N-[5-(4-fluorophenyl)-1,4-dimethyl-1H-pyrazol-3-yl]-6-{4-[1-methoxyethyl]-3,5-dimethyl-1H-pyrazol-1-yl}pyrimidin-4-amine] the IC50 was 0.006 µM. In the case of `CCOC(=O)c1c(C)nn(-c2cc(Nc3[nH]nc(-c4ccc(F)cc4)c3C3CC3)ncn2)c1C` [Example 15, ethyl 1-(6-{[4-cyclopropyl-3-(4-fluorophenyl)-1H-pyrazol-5-yl]amino}pyrimidin-4-yl)-3,5-dimethyl-1H-pyrazole-4-carboxylate], the IC50 is reported as 0.072 µM. `Cc1cc(C(C)(C)O)n(-c2cc(Nc3c(C)c(-c4ccc(C(F)(F)F)cc4)nn3CC3CC3)ncn2)n1` [Example 293, 2-{1-[6-({1-(cyclopropylmethyl)-4-methyl-3-[4-(trifluoromethyl)phenyl]-1H-pyrazol-5-yl}amino)pyrimidin-4-yl]-3-methyl-1H-pyrazol-5-yl}propan-2-ol] showed an IC50 of 0.57 µM. `CCc1c(Nc2cc(-n3nc(C)c(C(C)(C)O)c3C(F)F)ncn2)nn(C)c1-c1ccc(F)cc1` [Example 190, 2-[5-(difluoromethyl)-1-(6-{[4-ethyl-5-(4-fluorophenyl)-1-methyl-1H-pyrazol-3-yl]amino}pyrimidin-4-yl)-3-methyl-1H-pyrazol-4-yl]propan-2-ol] was tested, and the IC50 was 0.21 µM. Compound `Cc1cc(C(F)F)n(-c2cc(Nc3c(C)c(-c4ccc(C#N)cc4)nn3CC(F)F)ncn2)n1` [Example 234, 4-[1-(2,2-difluoroethyl)-5-({6-[5-(difluoromethyl)-3-methyl-1H-pyrazol-1-yl]pyrimidin-4-yl}amino)-4-methyl-1H-pyrazol-3-yl]benzonitrile] has an IC50 of 0.028 µM. For `Cc1nn(-c2cc(Nc3c(C)c(-c4ccncc4)nn3CC3CC3)ncn2)c(C)c1C(F)(F)F` [Example 384, N-[1-(cyclopropylmethyl)-4-methyl-3-(pyridin-4-yl)-1H-pyrazol-5-yl]-6-[3,5-dimethyl-4-(trifluoromethyl)-1H-pyrazol-1-yl]pyrimidin-4-amine], the IC50 was 0.03 µM. In the case of `Cc1cc(C)n(-c2cc(Nc3c(C)c(-c4ccccc4)nn3C)ncn2)n1` [Example 75, N-(1,4-dimethyl-3-phenyl-1H-pyrazol-5-yl)-6-(3,5-dimethyl-1H-pyrazol-1-yl)pyrimidin-4-amine], the IC50 is reported as 0.042 µM. `Cc1cc(C(F)F)n(-c2cc(Nc3c(C)c(-c4ccc(F)cn4)nn3CC3CC3)ncn2)n1` [Example 422, N-[1-(cyclopropylmethyl)-3-(5-fluoropyridin-2-yl)-4-methyl-1H-pyrazol-5-yl]-6-[5-(difluoromethyl)-3-methyl-1H-pyrazol-1-yl]pyrimidin-4-amine] showed an IC50 of 0.24 µM. In the case of `Cc1nn(-c2cc(Nc3c(C)nn(-c4ccc(C#N)cc4)c3C)ncn2)c(C)c1Cl` [Example 208, 4-(4-{[6-(4-chloro-3,5-dimethyl-1H-pyrazol-1-yl)pyrimidin-4-yl]amino}-3,5-dimethyl-1H-pyrazol-1-yl)benzonitrile], the IC50 is reported as 0.465 µM. `Cc1c(-c2ccc(F)cc2)nn(CC2CC2)c1Nc1cc(-n2[nH]c3c(c2=O)CCCC3)ncn1` [Example 416, 2-(6-{[1-(cyclopropylmethyl)-3-(4-fluorophenyl)-4-methyl-1H-pyrazol-5-yl]amino}pyrimidin-4-yl)-1,2,4,5,6,7-hexahydro-3H-indazol-3-one] gave an IC50 of 1.15 µM. `CCOC(=O)c1c(C)nn(-c2cc(Nc3nn(CC(F)F)c(-c4ccc(F)cc4)c3CC)ncn2)c1C` [Example 177, ethyl 1-(6-{[1-(2,2-difluoroethyl)-4-ethyl-5-(4-fluorophenyl)-1H-pyrazol-3-yl]amino}pyrimidin-4-yl)-3,5-dimethyl-1H-pyrazole-4-carboxylate] showed an IC50 of 0.041 µM.
